Experimental data from patent US10918719B2, “Methods for cross-linking corneal collagen with verteporfin for the treatment of disorders of the eye” (Massachusetts Eye and Ear Infirmary, priority 2014, dated 2021).

How the values were obtained:
[1] = tested on: Human research corneas (de-epithelialized, 8.5-mm buttons) in collagenase A; assay: Resistance to collagenase A digestion (time to total dissolution of cornea buttons); conditions: 0.3% collagenase A, 37° C.; for Collagenase time to dissolution: 150 rpm, ex vivo de-epithelialized corneas, n=5, mean ± SD; for time to dissolution in collagenase A: untreated corneas 5.47 ± 0.21 hours
Source text: Human research corneas were obtained from Tissue Bank International (Baltimore, Md.) and North Carolina Eye Bank (Winston-Salem, N.C.). Riboflavin 5′-phosphate sodium salt hydrate, 20% (w/w) dextran solution (from Leuconostoc mesenteroides) and collagenase A (from Clostridium histolyticum, E.C. 3.4.24.3) were obtained from Sigma Aldrich (St. Louis, Mo.). Barron® artificial anterior chambers were purchased from Katena Eye Instruments (Denville, N.J.). The VEGA LED-based UV emitter was purchased from Costruzione Strumenti Oftalmici (Firenze, Italy). The Excells E24 incubator shaker series was purchased from New Brunswick Scientific (Enfield, Conn.).
The corneas were obtained in OptiZol® solution and stored at 4° C. until use. All experiments were performed within 2 weeks from the date of death of the donor. Each cornea was fitted into a Barron® artificial anterior chamber with normal balanced salt solution followed by mechanical removal of 8 mm of the central corneal epithelium with a blunt blade.
Conventional riboflavin-UVA (R+UVA) crosslinking was performed in an ex vivo fashion according to the Dresden protoco.^1-2 50 mg of riboflavin 5′-phosphate was added to 50 mL of dextran (w/w) and mixed thoroughly to make 0.1% riboflavin (1 mg/mL) solution. All solutions were covered in aluminum foil for protection from room UV light and stored at 4° C. until use. Riboflavin solution was topically administered every 5 minutes onto the surface of the de-epithelialized cornea for total instillation period of 30 minutes. UVA 370 nm light (X-Vega, Sooft SPA) was then focused onto the surface of the cornea at an irradiance of 3 mW/cm^2 (5.4 J/cm^2 fluence) for 5 minutes. The five-minute UVA exposure sequence was repeated 5 more times for a total UVA exposure time of 30 minutes. Prior to each 5-minute UVA treatment sequence, one drop of balanced salt solution and one drop of riboflavin were administered onto the surface of the cornea.
Each de-epithelialized cornea was placed on a Barron® artificial anterior chamber and underwent a treatment protocols (below) that included either topical verteporfin solution alone, non-thermal laser alone, or a combination of both topical verteporfin and non-thermal laser. Verteporfin solution was applied topically using the same formulation that is administered intravenously for the treatment of choroidal neovascularization^3-8 (6 mg/mL, Visudyne; Novartis Ophthalmics AG, Hettingen, Switzerland). A 689 nm wavelength non-thermal laser (Opal Photoactivator; Coherent Inc., Santa Clara, Calif.) was applied using a spot size of 7 mm at a power intensity of 600 mW/cm^2.
1. Topical verteporfin (V), without laser: Verteporfin solution was topically administered onto the surface of a de-epithelialized cornea every minute for 15 minutes. The tissue was not exposed to laser therapy.
3. Combined treatment of verteporfin with non-thermal laser for one treatment sequence (V+NTL-1): Verteporfin, which was prepared at a dose of 6 mg/ml (one drop per minute) was applied onto the de-epithelialized corneas every minute for fifteen minutes followed by one NTL treatment sequence. A 689 nm nonthermal laser light was delivered directly over a cornea with spot sizes (7 mm) at a power intensity of 600 mW/cm^2 for one minute only.
4. Combined treatment of Verteporfin with Non-Thermal Laser Therapy for six treatment sequences (V+NTL-6): Verteporfin solution (6 mg/ml) was topically applied every minute for fifteen minutes followed by six NTL sequences. One drop of balanced salt solution and one drop of verteporfin was administered between each treatment sequence. […]

Human research corneas [2] = assay: Gross observation of corneal rigidity / curvature; conditions: for Gross observation: ex vivo treated corneas; for rigidity on gross examination versus untreated corneas: cornea strips placed horizontally in a clamp (FIG. 3)
Method: (§1) The biomechanical properties of untreated corneas and corneas treated with R+UVA and V+NTL6 were measured using gross observation, compression, creep and tensile strength testing. The corneas were stored in Optisol GS and refrigerated at 4° C. until the time of testing.
For example, when cornea strips were placed horizontally in a clamp, the tissue treated by V+NTL6 and by R+UVA were noted to have a more pronounced curvature than the untreated control group (FIG. 3).

Human research corneas [3] = assay: Compression testing (Q800 DMA), Young's modulus; conditions: for slope of the stress-strain compression data versus untreated corneas: FIG. 5; for Young's modulus: linear fit of stress-strain curve between 0.08 and 0.10 MPa, untreated 0.43 MPa
Method: as §1
Compression testing was performed using a Q800 DMA (TA instruments). The tissue was placed within a submersion clamp and centered beneath a custom 8 mm diameter compression plate, as shown in FIG. 2. The submersion clamp was filled with 1× phosphate buffered saline (PBS) solution to prevent the sample from drying out during the test.
The elasticity of any tissue can be determined by measuring the stress (force on a cross-section point) and its relative strain (proportional deformation)^12,14. The Young's modulus is the proportion between the stress and strain values and reflects the elasticity of the tissue. A small Young's modulus value reflects more elasticity of a material and is represented in units of Newton/m^2.
Young's modulus was calculated as a linear fit of the final portion of the stress-strain curve, between stress values of 0.08 and 0.10 MPa (FIG. 6). Tissue treated by R+UVA and V+NTL6 had statistically larger moduli than untreated corneas. Corneas treated by V+NTL6 appeared to be slightly more stiff (0.80 vs 0.43 MPa, p<0.005) than those treated by R+UVA (0.70 vs 0.43 MPa, p<0.05), however this difference was not statistically significant.

[4] = tested on: Human research corneas (corneal strips); assay: Tensile strength testing (strip extensometry); conditions: for maximum stress observed prior to failure: tensile test at 0.025 mm/sec until failure, untreated 3.02 (FIG. 8); for maximum modulus value (tensile): versus untreated corneas (FIG. 9B); for instantaneous modulus values at 4%, 6%, and 8% strain (toe region): versus untreated corneas (FIG. 11)
Method: as §1
A rectangular strip of corneal tissue (approximately 3 mm wide and 14 mm long) was cut from each sample with a scalpel. The corneal strips were individually clamped between the two jaws of a microcomputer-controlled biomaterial tester (Minimat, Rheometriv Scientific GmbH).^15-20 Tensile testing was performed using a Shimadzu AGS-X (Cambridge Polymer Group, Inc. 56 Roland St suite 310, Boston, Mass. 02129, United States) load frame equipped with a 50 N load cell and pneumatic grips, which were lined with sandpaper for prevent tissue slippage. The pneumatic grips compensated for any dimensional change as the samples were stretched and allowed a fixed grip pressure of 35 pressure per square inch (psi) to be applied. The initial grip separation was set to 4.5 mm and tested at a rate of 0.025 mm/sec until failure. The strain (ε) was then increased linearly at a certain velocity, and the relative stress (s) was measured.
In this study, strip extensometry was performed using rectangular strips of corneal tissue that was extracted from untreated and treated corneas. The maximum stress observed prior to failure, the maximum modulus values, and the instantaneous modulus values at specific strain percentages were calculated. The stress-strain data can be broadly separated into two regions: an initial toe region that covers strain values typically observed in vivo, and the region covering extreme deformations not likely to be observed in vivo.
Finally, the initial toe region of each sample group was compared. The stress-strain data was offset such that the sample length at a stress of 0.02 MPa was defined as 0% strain (this offset is equivalent to defining a pre-stress of […] at the start of the tensile test). A representative plot showing the toe region of the tensile data for one specimen from each sample group is shown in FIG. 10, and the instantaneous modulus values at 4%, 6%, and 8% strain for each sample group are shown in FIG. 11.

Human research corneas [5] = assay: Creep testing under constant force of 15 N; conditions: constant force 15 N, between 0 and 4.25 minutes; untreated −3.46
Method: The biomechanical properties of untreated corneas and corneas treated with R+UVA and V+NTL6 were measured using gross observation, compression, creep and tensile strength testing. The corneas were stored in Optisol GS and refrigerated at 4° C. until the time of testing. […] The sample was held under a constant force of 15 N and the strain was measured over a period of 4.25 minutes. Creep testing has been used to evaluate the biomechanical strength of tissue, such as the cornea, by applying a constant stress and monitoring the rate of deformation ^21In this study, cornea tissue was kept under a constant stress using a compression force of 15 N and then the slope of the strain-time curve was calculated between 0 and 4.25 minutes and represented the rate of tissue deformation.

Row | Collagenase time to dissolution ([1]; listed as V-NLT-1) [h] | time to dissolution in collagenase A [1] [h] | Collagenase time to dissolution [1] [h] | Collagenase time to dissolution ([1]; listed as V-NLT-6) [h] | time to dissolution in collagenase A ([1]; listed as riboflavin-UVA, sodium salt hydrate) [h] | time to dissolution in collagenase A ([1]; sodium salt hydrate) [h] | Molecule | Gross observation (Human research corneas [2]; listed as V-NLT-1) | Gross observation (Human research corneas [2]) | slope of the stress-strain compression data versus untreated corneas (Human research corneas [3]) | Young's modulus (Human research corneas [3]) [MPa] | maximum stress observed prior to failure [4] | maximum modulus value (tensile) [4] | instantaneous modulus values at 4%, 6%, and 8% strain (toe region) [4] | rigidity on gross examination versus untreated corneas (Human research corneas [2]) | Gross observation (Human research corneas [2]; listed as V-NLT-6) | creep rate (slope of the strain-time curve) (Human research corneas [5])
1 | 5.96 ± 0.39 | 5.96 ± 0.39 |  |  |  |  | verteporfin [V+NTL1] | No rigidity |  |  |  |  |  |  |  |  | 
2 |  | 5.95 | 5.95 ± 0.33 |  |  |  | verteporfin |  | No rigidity |  |  |  |  |  |  |  | 
3 |  | 19.75 ± 0.95 |  | 19.75 ± 0.95 |  |  | verteporfin [V+NTL6] |  |  | steeper | 0.80 | 7.67 | statistically larger maximum modulus values than untreated corneas | statistically larger modulus values than untreated corneas | much more rigidity than untreated corneas | Cornea rigid | −1.87
4 |  |  |  |  | 20.06 ± 1.23 | 20.06 | Cc1cc2nc3c(=O)[nH]c(=O)nc-3n(C[C@H](O)[C@H](O)[C@H](O)COP(=O)([O-])O)c2cc1C.[Na+] [R+UVA, Riboflavin 5′-phosphate sodium salt hydrate] |  |  | steeper | 0.70 | larger stress values prior to failure | statistically larger maximum modulus values than untreated corneas | no statistically significant difference was observed | much more rigidity than untreated corneas |  | faster creep rate, but the difference was not statistically significant
